According to PMC8658026, “The N-Acetylglucosamine Kinase from Yarrowia lipolytica Is a Moonlighting Protein” (International Journal of Molecular Sciences, 2021):

Tests used:
[1] = biological target: T1, YlNag5 (NAGA kinase) (Yarrowia lipolytica, UniProt Q6C584, F320S); test: residual NAGA assay after incubation with extract; type: biochemical
T1 construct: gene YALI0_E20207g

[2] = biological target: T2, YlNag5 (NAGA kinase) (Yarrowia lipolytica, UniProt Q6C584, D214V); test: residual NAGA assay after incubation with extract; type: biochemical
T2 construct: gene YALI0_E20207g
T2 sequence (Q6C584 entry or part of it D214V): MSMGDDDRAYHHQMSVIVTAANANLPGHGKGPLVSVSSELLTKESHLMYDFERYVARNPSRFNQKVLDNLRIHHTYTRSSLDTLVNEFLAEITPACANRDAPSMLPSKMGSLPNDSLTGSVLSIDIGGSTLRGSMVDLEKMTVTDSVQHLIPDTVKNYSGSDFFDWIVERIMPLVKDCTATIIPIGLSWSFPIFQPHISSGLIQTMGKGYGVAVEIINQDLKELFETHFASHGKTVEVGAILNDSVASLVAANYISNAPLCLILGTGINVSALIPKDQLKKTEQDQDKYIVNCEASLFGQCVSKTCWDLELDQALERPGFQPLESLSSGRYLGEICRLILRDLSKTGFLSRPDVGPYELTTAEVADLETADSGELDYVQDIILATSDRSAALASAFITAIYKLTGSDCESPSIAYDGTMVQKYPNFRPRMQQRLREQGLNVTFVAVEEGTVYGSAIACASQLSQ

T1 sequence (Q6C584 entry or part of it F320S): as the sequence (Q6C584 entry or part of it D214V) above, with V214D, F320S counted along it

Structure (SMILES): CC(=O)N[C@H]1C(O)O[C@H](CO)[C@@H](O)[C@@H]1O (some centres unmarked) [NAGA]
- residual NAGA assay after incubation with extract [1]: strains expressing the F320S or D214V variants of YlNag5 exhibited low or moderate kinase activity
- residual NAGA assay after incubation with extract [2]: strains expressing the F320S or D214V variants of YlNag5 exhibited low or moderate kinase activity
